Test results taken from EPA's ToxValDB 9.5.
Converted amounts (≈) assume the structure as drawn. “And” between values parts separate entries of the source, which are not always exact repeats. Identical values can stand only once.

Experiments:
Oryctolagus sp. = details: for LD50: acute
Rattus norvegicus [1] = details: for LC50 / LD50: acute
Rattus norvegicus [2] = details: subchronic; duration: 13 weeks; oral; gavage; M/F; Fischer 344; Deaths + Histopathology: Liver-Vacuolar change Liver/bile duct- Hyperplasia Liver/centrilobular - necrosis Kidney-Toxic nephropathy Salivary…
Rattus norvegicus [3] = details: subchronic; oral; gavage; M/F; hepatic lesions
Mus musculus = details: short-term; duration: 14 days; oral; gavage; M; CD1; hepatic
Rattus norvegicus [4] = details: chronic; duration: 2 years; oral; gavage; M/F; Fischer 344; hepatic
[5] = reproduction developmental, duration: 13 days, oral, gavage, F, New Zealand
[6] = subchronic, duration: 30 days, oral, diet, Sprague-Dawley
[7] = developmental, duration: 14 days, oral, gavage, Wistar
[8] = short-term, duration: 12 days, inhalation, F, Crl:CD1
[9] = short-term, duration: 28 days, oral, gavage, Wistar

Work on `CCCCCCCC/C=C/CCCCCCCCN.F` [9-Octadecen-1-amine, hydrofluoride] yielded an LOAEL (Oryctolagus sp.; [5]) of 1.2 mg/kg-day, an NOAEL (Rattus norvegicus [1]; reproduction developmental, oral, gavage, Long-Evans, generation: F0) of 6 mg/kg-day and an NOAEL (Rattus norvegicus [1]; reproduction developmental, oral, gavage, Long-Evans, generation: F1) of 30 mg/kg-day.

With `CCNc1cccc(C)c1` [N-Ethyl-3-methylaniline] the LD50 (Oryctolagus sp.; dermal, New Zealand) was greater than 2000 mg/kg, the LC50 (Rattus norvegicus [1]; inhalation) was 2.4 µg/mL (≈ 17.8 µM) and the LD50 (Rattus norvegicus [1]; oral, Sprague-Dawley) was 787 mg/kg and 478 mg/kg. For the same molecule, the LD50 (Rattus norvegicus [1]; oral, gavage, Wistar) was 650 mg/kg and the NOAEL (Rattus norvegicus [1]; short-term, duration: 2 weeks, inhalation, Sprague-Dawley) was 31 mg/m3.

`ClC(Br)Br` [Chlorodibromomethane] was tested, and the NOEL (Rattus norvegicus [2]) was 30 mg/kg-day, the LOAEL (Rattus norvegicus [3]) was 60 mg/kg-day and the NOEL (Rattus norvegicus [3]) was 21.4 mg/kg-day and 30 mg/kg-day. It also gave an LOAEL (Mus musculus) of 37 mg/kg-day and an LOAEL (Rattus norvegicus [4]) of 40 mg/kg-day.

For `CN1C(=O)c2ccccc2C1=O` [N-Methylphthalimide], the LD50 (Oryctolagus sp.; dermal, occlusive, New Zealand) was greater than 2000 mg/kg, the NOAEL (Oryctolagus sp.; developmental, duration: 6 days, oral, gavage, New Zealand) was greater than 500 mg/kg-day and the LD50 (Rattus norvegicus [1]; oral, Spartan) was greater than 500 mg/kg. For the same molecule, the LD50 (Rattus norvegicus [1]; oral, gavage, Spartan) was greater than 500 mg/kg, the NOAEL (Rattus norvegicus [1]; reproduction developmental, duration: 4 weeks, oral, gavage, F, Sprague-Dawley) was 150 mg/kg-day and the NOAEL (Rattus norvegicus [1]; reproduction developmental, duration: 4 weeks, oral, gavage, M, Sprague-Dawley) was no less than 600 mg/kg-day. It also gave an NOAEL (Rattus norvegicus [1]; reproduction developmental, duration: 4 weeks, oral, gavage, Sprague-Dawley, generation: F0) of 150 mg/kg-day, an NOAEL (Rattus norvegicus [1]; reproduction developmental, duration: 4 weeks, oral, gavage, Sprague-Dawley, generation: F1) of less than 50 mg/kg-day and an NOAEL (Rattus norvegicus [1]; reproduction developmental, oral, gavage, F) of 150 mg/kg-day. For the same molecule, the NOAEL (Rattus norvegicus [1]; reproduction developmental, oral, gavage, generation: F0) was 150 mg/kg-day, the NOAEL (Rattus norvegicus [1]; reproduction developmental, oral, gavage, generation: F1) was 50 mg/kg-day and the “LOAEL (% diet)” value (Rattus norvegicus [1]; [6]) was 0.5. For the same molecule, the “NOAEL (% diet)” value (Rattus norvegicus [1]; [6]) was 0.25.

For `CCCCC(CC)C(=O)[O-].CCCCC(CC)C(=O)[O-].[Zn+2]` (configuration not stated) [Zinc 2-ethylhexoate], the LD50 (Oryctolagus sp.; dermal, occlusive) was greater than 5000 mg/kg, the LC50 (Rattus norvegicus [1]; Inhalation) was greater than 23.2 µg/mL and the LD50 (Rattus norvegicus [1]; oral) was ≥ 3550 mg/kg and ≤ 3700 mg/kg. For the same molecule, the LD50 (Rattus norvegicus [1]; oral, gavage) was ≥ 3550 mg/kg and ≤ 3700 mg/kg and the NOAEL (Rattus norvegicus [1]; short-term, duration: 7 days, oral, gavage, Sprague-Dawley) was 1000 mg/kg-day.

`CCCCCCCCCCc1cccc(Oc2ccccc2S(=O)(=O)[O-])c1S(=O)(=O)[O-].[Na+].[Na+]` [Disodium n-decyldiphenyl ether disulfonate] was tested, and the LD50 (Oryctolagus sp.; dermal, occlusive, New Zealand) was greater than 2000 mg/kg, the LD50 (Rattus norvegicus [1]; oral, gavage, Fischer 344) was greater than 2000 mg/kg and the LD50 (Rattus norvegicus [1]; oral, gavage, Sprague-Dawley) was 3560 mg/kg.

For `ClC1=C(Cl)C2(Cl)C3CCC4C(CCC3C1(Cl)C2(Cl)Cl)C1(Cl)C(Cl)=C(Cl)C4(Cl)C1(Cl)Cl` (configuration not stated) [Dechlorane Plus], the LD50 (Oryctolagus sp.; dermal) was greater than 8000 mg/kg, the LOAEC (Oryctolagus sp.; reproduction developmental, duration: 4 weeks, dermal, non-occlusive, New Zealand, generation: F0) was 2000 mg/kg-day and the LC50 (Rattus norvegicus [1]; inhalation, particle) was greater than 300 µg/mL. It also gave an LC50 (Rattus norvegicus [1]; inhalation, particle, Charles-River) greater than 2.25 µg/mL, an LD50 (Rattus norvegicus [1]; oral, gavage, Sprague-Dawley) greater than 3160 mg/kg and an LD50 (Rattus norvegicus [1]; oral, gavage, Wistar) greater than 25000 mg/kg. The NOAEL (Rattus norvegicus [1]; reproduction developmental, duration: 13 weeks, oral, diet, Crl, generation: F0) was 100000 ppm and the LOAEL (Rattus norvegicus [1]; reproduction developmental, duration: 28 days, inhalation, particle, Charles River COB, generation: F0) was 0.64 mg/L.

`O=C([O-])c1ccc2ccccc2c1.O=C([O-])c1ccc2ccccc2c1.[Zn+2]` [Zinc naphthenate] was tested, and the LOAEL (Oryctolagus sp.; subchronic, duration: 90 days, dermal, semiocclusive, New Zealand) was 1000 mg/kg-day, the LD50 (Rattus norvegicus [1]; oral, gavage) was greater than 6000 mg/kg and the LD50 (Rattus norvegicus [1]; oral, gavage, Sprague-Dawley) was greater than 5000 mg/kg. For the same molecule, the LOAEL (Rattus norvegicus [1]; developmental, duration: 10 days, oral, gavage, Sprague-Dawley) was 938 mg/kg-day and the LOAEL (Rattus norvegicus [1]; reproduction developmental, duration: 10 days, oral, gavage, F, Sprague-Dawley) was 500 mg/kg-day and 938 mg/kg-day.

With `CC(CO)CO` [2-Methylpropane-1,3-diol] the LD50 (Oryctolagus sp.; dermal, New Zealand) was greater than 2000 mg/kg, the NOAEL (Oryctolagus sp.; reproduction developmental, duration: 28 days, oral, gavage, F, New Zealand) was 1000 mg/kg-day and the NOAEL (Oryctolagus sp.; reproduction developmental, duration: 28 days, oral, gavage, New Zealand, generation: F1) was 1000 mg/kg-day. It also gave an LC50 (Rattus norvegicus [1]; Inhalation, Wistar) greater than 5100 mg/m3, an LD50 (Rattus norvegicus [1]; oral, gavage, Wistar) greater than 5000 mg/kg and an NOAEL (Rattus norvegicus [1]; developmental, duration: 20 days, oral, gavage, Wistar) of 1000 mg/kg-day. The NOAEL (Rattus norvegicus [1]; reproduction developmental, duration: 20 days, oral, gavage, F, Wistar) was 1000 mg/kg-day, the NOAEL (Rattus norvegicus [1]; reproduction developmental, duration: 20 days, oral, gavage, Wistar, generation: F1) was 1000 mg/kg-day and the NOAEL (Rattus norvegicus [1]; reproduction developmental, duration: 90 days, oral, gavage, Wistar, generation: F0) was 1000 mg/kg-day. It also gave an NOAEL (Rattus norvegicus [1]; short-term, duration: 14 days, oral, gavage, Wistar) of 1000 mg/kg-day and an NOAEL (Rattus norvegicus [1]; subchronic, duration: 90 days, oral, gavage, Wistar) of 1000 mg/kg-day.

With `CCCCNC(=O)OCC#CI` [3-Iodo-2-propynyl-N-butylcarbamate] the NOAEL (Oryctolagus sp.; [5]) was 20 mg/kg-day, the NOAEL (Oryctolagus sp.; reproduction developmental, duration: 13 days, oral, gavage, New Zealand, generation: F1) was 50 mg/kg-day and the NOAEL (Oryctolagus sp.; subchronic, duration: 90 days, oral, diet, New Zealand) was 16.5 mg/kg-day. The LD50 (Rattus norvegicus [1]; oral, gavage, Sprague-Dawley) was 1800 mg/kg and 1470 mg/kg and 1060 mg/kg.

`C1OCOCO1` [1,3,5-Trioxane] gave an LD50 (Oryctolagus sp.; dermal) greater than 3980 mg/kg, an LC50 (Rattus norvegicus [1]; inhalation) greater than 39200 mg/m3 and an LD50 (Rattus norvegicus [1]; oral, gavage) of 8190 mg/kg. It also gave an LOAEL (Rattus norvegicus [1]; [7]) of 315 mg/kg-day, an NOAEL (Rattus norvegicus [1]; [7]) of 100 mg/kg-day and an LOAEL (Rattus norvegicus [1]; reproduction developmental, duration: 14 days, oral, gavage, F, Wistar) of 100 mg/kg-day. The LOAEL (Rattus norvegicus [1]; [8]) was 3630 mg/m3, the NOAEL (Rattus norvegicus [1]; [8]) was 379 mg/m3 and the LOAEL (Rattus norvegicus [1]; [9]) was 1000 mg/kg-day. It also gave an NOAEL (Rattus norvegicus [1]; [9]) of 200 mg/kg-day.
